Reference: ChEMBL document CHEMBL1152560, “Substituted 2-arylbenzothiazoles as kinase inhibitors: hit-to-lead optimization” (Bioorg Med Chem, 2009)

What was measured:
[1] = target: Serine/threonine-protein kinase PAK 6 (Homo sapiens) (UniProt Q9NQU5); assay: Residual activity of PAK6 at 10 uM by microplate scintillation counting
[2] = target: Vascular endothelial growth factor receptor 2 (Homo sapiens, UniProt P35968); assay: Residual activity of VEGFR2 at 10 uM by microplate scintillation counting
Chain of Vascular endothelial growth factor receptor 2 (P35968 whole entry): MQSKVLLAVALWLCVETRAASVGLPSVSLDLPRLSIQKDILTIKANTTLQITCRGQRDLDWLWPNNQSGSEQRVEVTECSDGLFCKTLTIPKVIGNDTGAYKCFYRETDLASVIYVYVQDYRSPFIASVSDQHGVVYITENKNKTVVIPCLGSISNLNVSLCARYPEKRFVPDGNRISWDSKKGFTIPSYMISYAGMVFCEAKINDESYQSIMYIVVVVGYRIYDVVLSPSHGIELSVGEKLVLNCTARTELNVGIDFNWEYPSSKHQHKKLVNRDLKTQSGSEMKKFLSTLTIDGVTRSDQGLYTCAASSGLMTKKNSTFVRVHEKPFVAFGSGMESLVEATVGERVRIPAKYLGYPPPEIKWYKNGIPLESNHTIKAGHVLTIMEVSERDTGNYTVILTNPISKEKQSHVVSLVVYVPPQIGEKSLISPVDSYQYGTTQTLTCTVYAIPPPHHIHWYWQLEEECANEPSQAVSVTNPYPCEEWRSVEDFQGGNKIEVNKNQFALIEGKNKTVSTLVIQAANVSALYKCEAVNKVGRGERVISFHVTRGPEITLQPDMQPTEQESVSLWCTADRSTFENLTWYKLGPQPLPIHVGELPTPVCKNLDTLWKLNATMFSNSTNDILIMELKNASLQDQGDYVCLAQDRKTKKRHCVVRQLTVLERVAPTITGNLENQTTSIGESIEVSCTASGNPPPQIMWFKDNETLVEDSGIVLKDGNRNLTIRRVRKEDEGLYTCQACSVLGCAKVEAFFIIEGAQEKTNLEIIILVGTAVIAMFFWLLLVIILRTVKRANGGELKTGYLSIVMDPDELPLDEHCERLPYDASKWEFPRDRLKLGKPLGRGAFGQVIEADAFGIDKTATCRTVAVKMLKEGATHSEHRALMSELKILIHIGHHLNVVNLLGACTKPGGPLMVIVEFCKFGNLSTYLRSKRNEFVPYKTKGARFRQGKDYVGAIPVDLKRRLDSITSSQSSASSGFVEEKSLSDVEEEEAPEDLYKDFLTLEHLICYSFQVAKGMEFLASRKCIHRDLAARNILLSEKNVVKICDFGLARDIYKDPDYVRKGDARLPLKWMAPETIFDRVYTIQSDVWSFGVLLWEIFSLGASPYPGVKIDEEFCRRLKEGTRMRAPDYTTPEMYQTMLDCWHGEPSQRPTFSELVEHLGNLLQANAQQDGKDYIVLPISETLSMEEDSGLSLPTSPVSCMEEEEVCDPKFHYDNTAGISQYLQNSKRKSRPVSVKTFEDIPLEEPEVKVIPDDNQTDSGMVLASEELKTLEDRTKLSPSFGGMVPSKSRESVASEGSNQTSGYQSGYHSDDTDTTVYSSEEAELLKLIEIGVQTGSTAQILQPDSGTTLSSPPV

[3] = target: T1, Serine/threonine-protein kinase TBK1 (Homo sapiens) (UniProt Q9UHD2); assay: Residual activity of TBK1 at 10 uM by microplate scintillation counting
T1 sequence (whole entry): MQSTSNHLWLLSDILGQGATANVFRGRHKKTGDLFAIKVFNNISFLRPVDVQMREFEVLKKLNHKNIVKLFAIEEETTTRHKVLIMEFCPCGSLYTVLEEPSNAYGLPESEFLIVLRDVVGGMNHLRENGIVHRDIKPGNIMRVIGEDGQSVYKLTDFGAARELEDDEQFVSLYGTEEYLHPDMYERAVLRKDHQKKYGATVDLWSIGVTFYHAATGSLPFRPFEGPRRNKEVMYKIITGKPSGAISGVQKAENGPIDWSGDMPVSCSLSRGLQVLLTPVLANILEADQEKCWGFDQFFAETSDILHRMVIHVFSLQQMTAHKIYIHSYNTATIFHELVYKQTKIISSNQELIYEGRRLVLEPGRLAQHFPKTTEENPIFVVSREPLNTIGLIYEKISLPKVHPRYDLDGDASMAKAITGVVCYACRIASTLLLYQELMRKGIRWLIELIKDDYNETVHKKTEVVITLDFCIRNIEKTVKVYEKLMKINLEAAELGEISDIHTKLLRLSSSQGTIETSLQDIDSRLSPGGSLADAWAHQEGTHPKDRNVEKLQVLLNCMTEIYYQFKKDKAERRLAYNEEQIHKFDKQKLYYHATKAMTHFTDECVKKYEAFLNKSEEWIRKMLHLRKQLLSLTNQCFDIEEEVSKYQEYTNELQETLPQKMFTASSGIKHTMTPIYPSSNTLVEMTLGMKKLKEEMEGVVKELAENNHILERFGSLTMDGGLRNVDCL

[4] = target: T2, Serine/threonine-protein kinase Sgk2 (Homo sapiens) (UniProt Q9HBY8); assay: Residual activity of SGK2 at 1 uM by microplate scintillation counting
T2 sequence (whole entry): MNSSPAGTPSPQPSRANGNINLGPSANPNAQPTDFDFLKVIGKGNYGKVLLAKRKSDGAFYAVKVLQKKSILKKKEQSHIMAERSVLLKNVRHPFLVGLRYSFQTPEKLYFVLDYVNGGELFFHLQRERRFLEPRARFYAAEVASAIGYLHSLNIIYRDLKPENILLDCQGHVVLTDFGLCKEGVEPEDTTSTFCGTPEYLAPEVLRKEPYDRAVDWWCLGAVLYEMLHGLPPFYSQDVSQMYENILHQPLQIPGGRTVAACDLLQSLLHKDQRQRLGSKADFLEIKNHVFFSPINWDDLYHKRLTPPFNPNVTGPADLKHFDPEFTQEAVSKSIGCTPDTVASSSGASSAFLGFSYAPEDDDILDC

[5] = target: Serine/threonine-protein kinase 24 (Homo sapiens) (UniProt Q9Y6E0); assay: Residual activity of MST3 at 10 uM by microplate scintillation counting
[6] = target: Serine/threonine-protein kinase WNK3 (Homo sapiens) (UniProt Q9BYP7); assay: Residual activity of WNK3 at 10 uM by microplate scintillation counting
Chain of Serine/threonine-protein kinase WNK3 (Homo sapiens) (Q9BYP7 whole entry): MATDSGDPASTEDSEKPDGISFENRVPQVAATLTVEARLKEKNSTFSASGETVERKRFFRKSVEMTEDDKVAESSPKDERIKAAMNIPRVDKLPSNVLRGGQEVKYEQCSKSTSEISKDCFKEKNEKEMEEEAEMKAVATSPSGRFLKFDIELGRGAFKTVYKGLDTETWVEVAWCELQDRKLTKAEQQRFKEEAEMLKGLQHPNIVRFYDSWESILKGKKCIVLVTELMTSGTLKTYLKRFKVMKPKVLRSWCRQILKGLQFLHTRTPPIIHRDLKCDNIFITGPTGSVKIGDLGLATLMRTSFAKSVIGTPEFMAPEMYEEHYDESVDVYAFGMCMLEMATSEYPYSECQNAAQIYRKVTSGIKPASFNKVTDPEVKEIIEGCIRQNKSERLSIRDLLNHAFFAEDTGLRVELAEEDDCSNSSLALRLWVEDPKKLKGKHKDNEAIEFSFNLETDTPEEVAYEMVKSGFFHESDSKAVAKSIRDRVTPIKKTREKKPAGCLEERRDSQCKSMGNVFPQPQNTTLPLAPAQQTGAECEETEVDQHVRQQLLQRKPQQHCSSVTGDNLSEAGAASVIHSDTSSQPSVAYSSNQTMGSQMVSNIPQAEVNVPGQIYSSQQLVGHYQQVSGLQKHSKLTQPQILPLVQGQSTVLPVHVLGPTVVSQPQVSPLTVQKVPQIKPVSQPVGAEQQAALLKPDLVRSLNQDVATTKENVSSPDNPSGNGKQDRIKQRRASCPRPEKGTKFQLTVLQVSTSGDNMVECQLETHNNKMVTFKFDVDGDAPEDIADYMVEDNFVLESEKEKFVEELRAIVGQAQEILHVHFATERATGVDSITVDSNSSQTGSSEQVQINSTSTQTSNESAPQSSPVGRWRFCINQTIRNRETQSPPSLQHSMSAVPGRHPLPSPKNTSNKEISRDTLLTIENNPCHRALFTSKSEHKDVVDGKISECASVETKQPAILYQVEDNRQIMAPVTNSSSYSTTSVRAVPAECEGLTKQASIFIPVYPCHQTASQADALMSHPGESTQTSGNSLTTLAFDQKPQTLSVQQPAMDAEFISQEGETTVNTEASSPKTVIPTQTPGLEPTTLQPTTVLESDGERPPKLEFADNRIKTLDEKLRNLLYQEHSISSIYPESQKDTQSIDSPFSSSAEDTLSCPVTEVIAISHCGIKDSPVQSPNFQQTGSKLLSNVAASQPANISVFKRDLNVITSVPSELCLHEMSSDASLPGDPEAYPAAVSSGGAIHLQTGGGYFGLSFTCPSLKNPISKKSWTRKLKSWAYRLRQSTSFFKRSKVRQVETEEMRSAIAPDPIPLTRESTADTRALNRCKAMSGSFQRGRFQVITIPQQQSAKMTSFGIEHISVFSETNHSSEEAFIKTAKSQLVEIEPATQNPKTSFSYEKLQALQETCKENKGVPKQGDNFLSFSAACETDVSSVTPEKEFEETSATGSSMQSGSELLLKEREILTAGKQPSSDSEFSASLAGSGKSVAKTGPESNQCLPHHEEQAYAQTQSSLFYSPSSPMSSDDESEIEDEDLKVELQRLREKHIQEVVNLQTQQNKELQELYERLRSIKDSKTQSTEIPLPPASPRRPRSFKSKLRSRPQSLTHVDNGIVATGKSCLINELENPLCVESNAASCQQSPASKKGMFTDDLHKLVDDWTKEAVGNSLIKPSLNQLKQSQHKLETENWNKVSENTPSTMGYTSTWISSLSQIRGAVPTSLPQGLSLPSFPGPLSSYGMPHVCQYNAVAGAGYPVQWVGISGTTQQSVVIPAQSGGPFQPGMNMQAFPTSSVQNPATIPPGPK

[7] = target: Tyrosine-protein kinase ABL2 (Homo sapiens) (UniProt P42684); assay: Residual activity of ABL2 at 1 uM by microplate scintillation counting
Chain of Tyrosine-protein kinase ABL2 (Homo sapiens) (P42684 whole entry): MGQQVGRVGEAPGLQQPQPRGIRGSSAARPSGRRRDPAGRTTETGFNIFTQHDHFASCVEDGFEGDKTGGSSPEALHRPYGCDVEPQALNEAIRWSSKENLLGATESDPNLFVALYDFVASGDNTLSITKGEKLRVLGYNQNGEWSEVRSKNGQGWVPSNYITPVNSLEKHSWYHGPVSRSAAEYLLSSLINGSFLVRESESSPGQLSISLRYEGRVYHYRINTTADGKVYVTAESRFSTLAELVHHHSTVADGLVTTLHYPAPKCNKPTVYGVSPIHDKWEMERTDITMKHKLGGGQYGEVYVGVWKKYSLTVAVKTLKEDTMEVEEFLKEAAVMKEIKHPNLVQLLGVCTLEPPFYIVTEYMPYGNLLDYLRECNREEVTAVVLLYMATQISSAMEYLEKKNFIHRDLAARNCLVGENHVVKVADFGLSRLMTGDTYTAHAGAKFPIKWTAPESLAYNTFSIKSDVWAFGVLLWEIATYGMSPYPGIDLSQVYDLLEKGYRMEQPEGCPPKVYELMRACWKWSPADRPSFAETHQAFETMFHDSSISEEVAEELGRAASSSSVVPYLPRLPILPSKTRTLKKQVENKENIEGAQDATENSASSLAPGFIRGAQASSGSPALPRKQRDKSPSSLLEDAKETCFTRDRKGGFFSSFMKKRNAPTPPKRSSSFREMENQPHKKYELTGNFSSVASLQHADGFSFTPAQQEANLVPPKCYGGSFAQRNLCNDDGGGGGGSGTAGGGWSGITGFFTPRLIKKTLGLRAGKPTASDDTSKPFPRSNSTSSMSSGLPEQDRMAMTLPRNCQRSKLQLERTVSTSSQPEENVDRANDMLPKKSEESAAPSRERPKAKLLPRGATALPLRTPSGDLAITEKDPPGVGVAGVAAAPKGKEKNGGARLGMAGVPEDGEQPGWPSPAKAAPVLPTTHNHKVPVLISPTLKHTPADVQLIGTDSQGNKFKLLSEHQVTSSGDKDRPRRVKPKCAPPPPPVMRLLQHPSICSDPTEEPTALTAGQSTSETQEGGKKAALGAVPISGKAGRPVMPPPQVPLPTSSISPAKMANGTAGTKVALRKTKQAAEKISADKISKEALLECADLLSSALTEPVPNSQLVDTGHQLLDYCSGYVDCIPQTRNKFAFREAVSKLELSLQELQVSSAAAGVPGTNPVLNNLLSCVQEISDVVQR

[8] = target: Tyrosine-protein kinase Lyn (Homo sapiens) (UniProt P07948); assay: Residual activity of LYN at 1 uM by microplate scintillation counting
[9] = target: T3, Aurora kinase A (Homo sapiens) (UniProt O14965); assay: Residual activity of Aurora-A at 10 uM by microplate scintillation counting
T3 sequence (whole entry): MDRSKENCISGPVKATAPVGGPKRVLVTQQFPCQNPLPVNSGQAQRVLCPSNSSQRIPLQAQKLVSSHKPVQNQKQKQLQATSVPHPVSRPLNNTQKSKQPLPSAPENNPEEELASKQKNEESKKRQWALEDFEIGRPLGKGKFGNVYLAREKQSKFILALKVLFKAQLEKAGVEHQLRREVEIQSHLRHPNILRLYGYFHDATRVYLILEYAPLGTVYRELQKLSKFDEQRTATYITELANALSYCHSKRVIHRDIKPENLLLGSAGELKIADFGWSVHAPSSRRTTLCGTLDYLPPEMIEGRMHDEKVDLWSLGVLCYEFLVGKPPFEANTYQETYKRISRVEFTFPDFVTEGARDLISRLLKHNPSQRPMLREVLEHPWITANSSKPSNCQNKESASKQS

[10] = target: T4, Serine/threonine-protein kinase NLK (Homo sapiens) (UniProt Q9UBE8); assay: Residual activity of NLK at 1 uM by microplate scintillation counting
T4 sequence (whole entry): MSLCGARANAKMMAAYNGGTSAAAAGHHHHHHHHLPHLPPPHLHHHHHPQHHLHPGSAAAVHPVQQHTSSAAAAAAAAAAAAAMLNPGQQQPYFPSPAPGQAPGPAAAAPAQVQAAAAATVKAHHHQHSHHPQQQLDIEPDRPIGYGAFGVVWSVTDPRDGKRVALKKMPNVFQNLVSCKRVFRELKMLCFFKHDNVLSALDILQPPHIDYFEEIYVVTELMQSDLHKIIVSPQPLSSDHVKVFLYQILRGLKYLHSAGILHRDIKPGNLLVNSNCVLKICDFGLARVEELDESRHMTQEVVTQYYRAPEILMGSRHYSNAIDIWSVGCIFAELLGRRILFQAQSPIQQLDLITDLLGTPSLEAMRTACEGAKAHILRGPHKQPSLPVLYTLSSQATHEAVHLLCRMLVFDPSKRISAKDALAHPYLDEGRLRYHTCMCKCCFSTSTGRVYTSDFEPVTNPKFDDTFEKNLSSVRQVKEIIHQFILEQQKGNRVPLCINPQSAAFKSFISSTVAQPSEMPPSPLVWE

Chain of Serine/threonine-protein kinase PAK 6 (Homo sapiens) (Q9NQU5 whole entry, looked up): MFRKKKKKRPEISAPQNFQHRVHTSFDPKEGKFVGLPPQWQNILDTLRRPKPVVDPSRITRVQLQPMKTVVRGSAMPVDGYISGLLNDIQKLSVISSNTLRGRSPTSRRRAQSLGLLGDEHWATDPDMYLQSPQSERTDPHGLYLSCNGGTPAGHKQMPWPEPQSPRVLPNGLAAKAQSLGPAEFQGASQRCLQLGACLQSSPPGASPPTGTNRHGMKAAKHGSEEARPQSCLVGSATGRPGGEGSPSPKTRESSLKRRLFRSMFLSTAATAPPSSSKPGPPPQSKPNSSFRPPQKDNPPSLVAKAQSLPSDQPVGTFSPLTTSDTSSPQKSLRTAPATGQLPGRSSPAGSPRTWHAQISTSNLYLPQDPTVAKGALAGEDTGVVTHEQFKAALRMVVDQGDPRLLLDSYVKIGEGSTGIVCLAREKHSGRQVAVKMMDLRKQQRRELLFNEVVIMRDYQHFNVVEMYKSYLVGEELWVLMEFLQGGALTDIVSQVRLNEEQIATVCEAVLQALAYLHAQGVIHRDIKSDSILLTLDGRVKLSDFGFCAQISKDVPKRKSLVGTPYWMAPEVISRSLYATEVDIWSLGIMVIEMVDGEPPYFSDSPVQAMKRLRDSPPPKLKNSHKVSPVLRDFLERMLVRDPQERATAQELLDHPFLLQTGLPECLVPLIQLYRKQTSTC

COc1cc2c(Oc3ccc(-c4nc5ccccc5s4)cc3)ncnc2cc1OCCCN1CCN(C)CC1
residual activity [1]: 65%
residual activity [2]: 6%
residual activity [3]: 171%
residual activity [4]: 95%
residual activity [5]: 231%
residual activity [6]: 23%
residual activity [7]: 99%
residual activity [8]: 104%
residual activity [9]: 5%
residual activity [10]: 113%

COc1cc2c(Oc3ccc(-c4nc5ccccc5s4)cc3)ncnc2cc1OCCCN1CCCC1
residual activity [1]: 95%
residual activity [2]: 5%
residual activity [3]: 143%
residual activity [4]: 93%
residual activity [5]: 165%
residual activity [6]: 21%
residual activity [7]: 98%
residual activity [8]: 119%
residual activity [9]: 4%
residual activity [10]: 96%

COc1cc2c(Oc3ccc(-c4nc5ccccc5s4)cc3F)ncnc2cc1OCCCN1CCN(C)CC1
residual activity [1]: 57%
residual activity [2]: 5%
residual activity [3]: 141%
residual activity [4]: 93%
residual activity [5]: 229%
residual activity [6]: 39%
residual activity [7]: 87%
residual activity [8]: 93%
residual activity [9]: 4%
residual activity [10]: 113%
